Experimental data taken from patent publication US7605227B2, “Melanoma antigen peptide analogues” (MannKind Corporation, priority 2005, dated 2009).
Square brackets hold non-standard residues; d marks the D form. Ends that are not written are not given here. Peptide text beside a SMILES is read from it. Phe(4-NO2) = N[C@@H](Cc1ccc([N+](=O)[O-])cc1)C(=O)O; Bta = N[C@@H](Cc1csc2ccccc12)C(=O)O; Phg = N[C@H](C(=O)O)c1ccccc1; Nle = CCCC[C@H](N)C(=O)O; Nva = CCC[C@H](N)C(=O)O

How the values were obtained:
[1] = biological target: HLA-A*0201 (Homo sapiens, UniProt P04439, D140Y/D185E/D98H/E176V/E277Q/G131W/G231S/I119V/I121R/I166T/I218V/L300P/L318F/N151K/N90K/P208A/P217A/Q86G/Q94H/R138H/R169H/T345S); experiment: Peptide binding using T2 cells (SSX-2 41-49 analogs); conditions: for Relative affinity (1/RA): half maximal binding of wild-type peptide relative to analog, native = 1.0
Excerpt: Thus, at limiting concentrations of peptide, it is a measurement of Kon mostly and at saturation levels of peptide it is a measurement of both Kon and Koff.

[2] = test system: T cell lines against a natural (non-mutated) epitope (SSX-241-49); experiment: Cross-reactivity and functional avidity: IFN-gamma from T cell lines against natural SSX-2 41-49 epitope; assay type: cell-based, HHD transgenic mice; conditions: for Cross-reactivity and fct avidity (native to analogs)*: IFN-gamma from T cell line raised against native SSX-2 41-49, native = 1, lower = more active;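 as to all read-outs here: peptide analogs tested ex vivo with competent APCs, IFN-gamma in supernatant measured by ELISA, readouts include minimal triggering concentration, peak effect and concentration at peak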
[3] = test system: T cells that recognized native PSMA288-297 peptide; experiment: Peptide immunization with PSMA analogs, IFN-gamma ELISPOT against native peptide; assay type: in vivo, HHD transgenic mice; conditions: peptide + pI:C intranodal immunization
Procedure: Groups of HHD transgenic mice (n=8) were immunized with peptide (natural epitope PSMA288-297, or analogs bearing substitutions at primary or secondary anchor residues) by direct inoculation into the inguinal lymph nodes, with 25 μg in 25 μl of PBS+12.5 μg of pI:C to each lymph node at day 0, 3, 14 and 17.
Mice were sacrificed at 10 days after the last boost, and splenocytes prepared and assessed for IFN-γ production by ELISPOT analysis. […] At 48 hours after incubation, the assay was developed and the frequency of cytokine-producing T cells that recognized native PSMA288-297 peptide was automatically counted. The data is represented in FIG. 22 as the number of spot forming colonies/well (mean of triplicates±SD). […] To the extent that the poor immunogenicity of the native epitope reflects tolerance, the improved activity of these analogs represents tolerance breaking.

[4] = test system: PRAME+ A2+ 624.38 melanoma cells; experiment: PRAME immunization, ex vivo cytotoxicity against human tumor cells; assay type: in vivo, HHD transgenic mice; conditions: mouse, in vivo
Procedure: This was followed by two peptide boosts (2.5 μg) at day 28 and 31, with the analog L426Nva L433Nle.

| Molecule | Relative affinity (1/RA) [1] | Cross-reactivity and fct avidity (native to analogs)* [2] | also measured |
| --- | --- | --- | --- |
| CC[C@H](C)[C@H](NC(=O)[C@H](CCCCN)NC(=O)[C@H](CCC(=O)O)NC(=O)[C@H](CO)NC(=O)[C@H](C)NC(=O)[C@@H](N)Cc1ccc(OC)cc1)C(=O)N[C@@H](Cc1ccccc1)C(=O)N[C@@H](Cc1ccc(O)cc1)C(=O)N[C@H](C(=O)O)C(C)C [SSX2 41-49 (K41(O-methyl Tyr))] (H-Y(Me)ASEKIFYV-OH) | 0.8 | 3 |  |
| CC[C@H](C)[C@H](NC(=O)[C@H](CCCCN)NC(=O)[C@H](CCC(=O)O)NC(=O)[C@H](CO)NC(=O)[C@H](C)NC(=O)[C@@H](N)Cc1ccc([N+](=O)[O-])cc1)C(=O)N[C@@H](Cc1ccccc1)C(=O)N[C@@H](Cc1ccc(O)cc1)C(=O)N[C@H](C(=O)O)C(C)C [SSX2 41-49 (K41(Phe-4N02))] (H-[Phe(4-NO2)]ASEKIFYV-OH) | 1.1 | 3 | binding affinity (and stability) with HLA-A*0201 relative to wild-type, in words ([1]; SSX-2 41-49 analogs): about the same as that of wild-type peptide; cross-reactivity / IFN-gamma inducing activity relative to wild-type, in words ([2]; SSX-2 41-49 analogs, wild-type specific T cells): much lower concentration |
| CC[C@H](C)[C@H](NC(=O)[C@H](CCCCN)NC(=O)[C@H](CCC(=O)O)NC(=O)[C@H](CO)NC(=O)[C@H](C)NC(=O)[C@@H](N)c1ccccc1)C(=O)N[C@@H](Cc1ccccc1)C(=O)N[C@@H](Cc1ccc(O)cc1)C(=O)N[C@H](C(=O)O)C(C)C [SSX2 41-49 (K41(Phg))] (H-[Phg]ASEKIFYV-OH) | 2.5 | 0.1 |  |
| CC[C@H](C)[C@H](NC(=O)[C@H](CCCCN)NC(=O)[C@H](CCC(=O)O)NC(=O)[C@H](CO)NC(=O)[C@H](C)NC(=O)[C@@H](N)Cc1csc2ccccc12)C(=O)N[C@@H](Cc1ccccc1)C(=O)N[C@@H](Cc1ccc(O)cc1)C(=O)N[C@H](C(=O)O)C(C)C [SSX2 41-49 (K41(b-(3-benzothienyl)Ala))] (H-[Bta]ASEKIFYV-OH) | 0.6 | 10 |  |
| CCCC[C@H](NC(=O)[C@H](CO)NC(=O)[C@@H](NC(=O)[C@@H](N)Cc1ccccc1)C(C)C)C(=O)N[C@@H](CCCCN)C(=O)N[C@H](C(=O)N[C@@H](Cc1ccccc1)C(=O)N[C@@H](Cc1ccc(O)cc1)C(=O)N[C@H](C(=O)O)C(C)C)[C@@H](C)CC [SSX2 41-49 (K41F, A42V, E44Nle), FVS(Nle)KIFYV] (H-FVS[Nle]KIFYV-OH) | 1.1 | 10 |  |
| CCC[C@H](NC(=O)[C@H](CO)NC(=O)[C@@H](NC(=O)[C@@H](N)Cc1ccccc1)C(C)C)C(=O)N[C@@H](CCCCN)C(=O)N[C@H](C(=O)N[C@@H](Cc1ccccc1)C(=O)N[C@@H](Cc1ccc(O)cc1)C(=O)N[C@H](C(=O)O)C(C)C)[C@@H](C)CC [SSX2 41-49 (K41F, A42V, E44Nva), FVS(Nva)KIFYV] (H-FVS[Nva]KIFYV-OH) | 3.9 | 3 |  |
| CCCC[C@H](NC(=O)[C@H](CCCCN)NC(=O)[C@H](CCC(=O)O)NC(=O)[C@H](CO)NC(=O)[C@@H](NC(=O)[C@@H](N)Cc1ccccc1)C(C)C)C(=O)N[C@@H](Cc1ccccc1)C(=O)N[C@@H](Cc1ccc(O)cc1)C(=O)N[C@H](C(=O)O)C(C)C [SSX2 41-49 (K41F, A42V, I46Nle), FVSEK(Nle)FYV] (H-FVSEK[Nle]FYV-OH) | 1.1 | 10 |  |
| CCC[C@H](NC(=O)[C@H](CCCCN)NC(=O)[C@H](CCC(=O)O)NC(=O)[C@H](CO)NC(=O)[C@@H](NC(=O)[C@@H](N)Cc1ccccc1)C(C)C)C(=O)N[C@@H](Cc1ccccc1)C(=O)N[C@@H](Cc1ccc(O)cc1)C(=O)N[C@H](C(=O)O)C(C)C [SSX2 41-49 (K41F, A42V, I46Nva), FVSEK(Nva)FYV] (H-FVSEK[Nva]FYV-OH) | 2.4 | 1 |  |
| CC[C@H](C)[C@H](NC(=O)[C@H](CCCCN)NC(=O)[C@H](CCC(=O)O)NC(=O)[C@H](CO)NC(=O)[C@@H](NC(=O)[C@@H](N)Cc1ccccc1)C(C)C)C(=O)N[C@@H](Cc1ccccc1)C(=O)N[C@@H](Cc1ccccc1)C(=O)N[C@H](C(=O)O)C(C)C [SSX2 41-49 (K41F, A42V, Y48F)] | 1.7 | 10 |  |
| CC[C@H](C)[C@H](NC(=O)[C@H](CCCCN)NC(=O)[C@H](CCC(=O)O)NC(=O)[C@H](CO)NC(=O)[C@@H](NC(=O)[C@@H](N)Cc1ccccc1)C(C)C)C(=O)N[C@@H](Cc1ccccc1)C(=O)N[C@H](C(=O)N[C@H](C(=O)O)C(C)C)c1ccccc1 [SSX2 41-49 (K41F, A42V, Y48Phg), FVSEKIF(Phg)V] (H-FVSEKIF[Phg]V-OH) | 2.5 | >10 |  |
| CC[C@H](C)[C@H](NC(=O)[C@H](CCCCN)NC(=O)[C@H](CCC(=O)O)NC(=O)[C@H](CO)NC(=O)[C@@H](NC(=O)[C@@H](N)Cc1ccc(O)cc1)C(C)C)C(=O)N[C@@H](Cc1ccccc1)C(=O)N[C@@H](Cc1ccc(O)cc1)C(=O)N[C@H](C(=O)O)C(C)C [SSX2 41-49 (K41Y, A42V)] | 1.0 | 0.1 |  |
| FISEKIFYV [SSX2 41-49 (K41F, A42I)] | 2.7 | 0.3 |  |
| FVSDKIFYV [SSX2 41-49 (K41F, A42V, E44D)] | 1.1 | >10 |  |
| FVSEKIFSV [SSX2 41-49 (K41F, A42V, Y48S)] | 3.9 | >10 |  |
| FVSEKIFTV [SSX2 41-49 (K41F, A42V, Y48T)] | 3.8 | >10 |  |
| FVSEKIFYM [SSX2 41-49 (K41F, A42V, V49M)] | 0.8 | >10 |  |
| FVSEKIFYV [SSX2 41-49 (K41F, A42V)] | 3.1 | 0.1 |  |

| Molecule | Relative affinity (1/RA) [1] | Cross-reactivity and fct avidity (native to analogs)* [2] | also measured |
| --- | --- | --- | --- |
| FVSEKLFSA | 2.4 | >10 |  |
| FVSEKLFTV [SSX2 41-49 (K41F, A42V, I46L, Y48T)] | 2.6 | >10 |  |
| FVSEKLFYV [SSX2 41-49 (K41F, A42V, I46L)] | 1.9 | 3 |  |
| FVSQKIFYV [SSX2 41-49 (K41F, A42V, E44Q)] | 0.4 | 10 |  |
| GLWSIPVHPI [Peptide P290W] |  |  | IFN-γ ELISPOT response against native epitope, in words [3]: increased priming of immune responses against the native epitope |
| I297Nva: PSMA288-297 analog with Nva for Ile at position 297 [Peptide I297Nva] |  |  | IFN-γ ELISPOT response against native epitope, in words [3]: slightly higher (but significant) activity than the native peptide |
| KASEKIFYI [SSX2 41-49 (V49I)] | 1.0 | 10 |  |
| KISEKIFYV [SSX2 41-49 (A42I)] | 1.7 | 3 |  |
| KLSEKIFYI [SSX2 41-49 (A42L, V49I)] | 2.6 | 0.03 |  |
| KMSEKIFYV [SSX2 41-49 (A42M)] | 1.7 | 0.1 |  |
| SLLQHLIGL [PRAME 425-433, reference compound] |  |  | ex vivo cytotoxicity against A2+ PRAME+ 624.38 cells, in words [4]: able to lyse human tumor cells |
| WLSEKIFYV [SSX2 41-49 (K41W, A42L)] | 3.3 | 0.3 |  |
| WMSEKIFYV [SSX2 41-49 (K41W, A42M)] | 2.9 | 1 |  |
| WVSEKIFYV [SSX2 41-49 (K41W, A42V)] | 3.0 | 1 |  |
| YLSEKIFYV [SSX2 41-49 (K41Y, A42L)] | 1.2 |  |  |
| YMSEKIFYV [SSX2 41-49 (K41Y, A42M)] | 0.6 | 3 |  |
| {Abu}LPSIPVHPI [Peptide G288Abu] |  |  | IFN-γ ELISPOT response against native epitope, in words [3]: slightly higher (but significant) activity than the native peptide |
